{
  "source": "patent US4415558A",
  "about": "“CRF And analogs” (The Salk Institute for Biological Studies, priority 1982, dated 1983)",
  "key": {"[1]": {"test_system": "cultured rat pituitary cells", "assay": "Secretion of ACTH and β-endorphin by cultured rat pituitary cells", "format": "cell-based", "conditions": "general procedure set forth in Example III; in vitro or in vivo not specified", "description": "The synthetic and the natural CRF were examined for their effects on the secretion of ACTH and β-endorphin in vitro and the synthetic CRF was also examined in vivo. The high potency of synthetic and natural CRF to stimulate the secretion of ACTH and β-endorphin by cultured rat pituitary cells was measured. […] The secretory response to maximal (>5 nM) concentrations of CRF is at a plateau level. In vivo doses from 30 ng to 3 μg/Kg of body weight rapidly elevated ACTH and β-endorphin-like (β-END-LI) secretions 5-20 fold."}, "[2]": {"assay": "Blood pressure in rats (mean carotid blood pressure, urethane-anesthetized rat)", "format": "in vivo", "conditions": "general procedure set forth in Example III", "description": "Plasma levels of ACTH and β-END-LI are elevated for at least 5-20 minutes following the intravenous administration of CRF to nembutal-anesthesized male rats and to quiescent male or female rats with indwelling intravenous cannulae. […] Mean cartoid blood pressure in a urethane-anesthesized rat fell from 87 to 72±2 mm Hg and remained at that level for 30 minutes following an injection equal to 3 μg CRF/Kg body weight; the subsequent administration of an injection equal to 30 μg CRF/Kg body weight lowered mean blood pressure to 42±3 mm Hg for more than 2 hours."}},
  "note": "Where a SMILES comes first, the peptide text is derived from it. The star is where a group is joined. Bz = O=C(c1ccccc1)*",
  "data": [
    {"smiles": "CC[C@H](C)[C@H](NC(=O)[C@H](CC(=O)O)NC(=O)[C@H](CC(C)C)NC(=O)[C@H](CC(C)C)NC(=O)[C@H](CCCCN)NC(=O)[C@H](CCCNC(=N)N)NC(=O)[C@H](CC(N)=O)NC(=O)[C@H](CO)NC(=O)[C@H](Cc1c[nH]cn1)NC(=O)[C@H](C)NC(=O)[C@H](CCC(N)=O)NC(=O)[C@H](CCC(N)=O)NC(=O)[C@H](C)NC(=O)[C@H](CC(C)C)NC(=O)[C@H](CCC(N)=O)NC(=O)[C@H](CC(=O)O)NC(=O)[C@H](C)NC(=O)[C@H](CCCCN)NC(=O)[C@@H](NC(=O)[C@H](CCSC)NC(=O)[C@H](CCC(=O)O)NC(=O)[C@H](CC(C)C)NC(=O)[C@@H](NC(=O)[C@H](CCC(=O)O)NC(=O)[C@H](CCCNC(=N)N)NC(=O)[C@H](CC(C)C)NC(=O)[C@H](CC(C)C)NC(=O)[C@H](Cc1c[nH]cn1)NC(=O)[C@H](Cc1ccccc1)NC(=O)[C@@H](NC(=O)[C@H](CC(C)C)NC(=O)[C@H](CC(=O)O)NC(=O)[C@H](CC(C)C)NC(=O)[C@H](CO)NC(=O)[C@@H](NC(=O)[C@@H]1CCCN1C(=O)[C@@H]1CCCN1C(=O)[C@H](CCC(=O)O)NC(=O)[C@H](CCC(N)=O)NC(=O)[C@H](C)NC(C)=O)[C@@H](C)CC)[C@@H](C)O)C(C)C)[C@@H](C)O)C(=O)N[C@@H](C)C(N)=O", "note": "[[Acetyl-Ala^1]-CRF]", "values": [
      {"measurement": "Stimulation of secretion of ACTH and β-END-LI (in words)", "setting": "[1]", "result": "stimulates the secretion of ACTH and β-END-LI"},
      {"measurement": "Lowering of blood pressure (in words)", "setting": "[2]", "result": "very significant lowering of blood pressure"}
    ]},
    {"smiles": "CC[C@H](C)[C@H](NC(=O)[C@H](CC(=O)O)NC(=O)[C@H](CC(C)C)NC(=O)[C@H](CC(C)C)NC(=O)[C@H](CCCCN)NC(=O)[C@H](CCCNC(=N)N)NC(=O)[C@H](CC(N)=O)NC(=O)[C@H](CO)NC(=O)[C@H](Cc1c[nH]cn1)NC(=O)[C@H](C)NC(=O)[C@H](CCC(N)=O)NC(=O)[C@H](CCC(N)=O)NC(=O)[C@H](C)NC(=O)[C@H](CC(C)C)NC(=O)[C@H](CCC(N)=O)NC(=O)[C@H](CC(=O)O)NC(=O)[C@H](C)NC(=O)[C@H](CCCCN)NC(=O)[C@@H](NC(=O)[C@H](CCSC)NC(=O)[C@H](CCC(=O)O)NC(=O)[C@H](CC(C)C)NC(=O)[C@@H](NC(=O)[C@H](CCC(=O)O)NC(=O)[C@H](CCCNC(=N)N)NC(=O)[C@H](CC(C)C)NC(=O)[C@H](CC(C)C)NC(=O)[C@H](Cc1c[nH]cn1)NC(=O)[C@H](Cc1ccccc1)NC(=O)[C@@H](NC(=O)[C@H](CC(C)C)NC(=O)[C@H](CC(=O)O)NC(=O)[C@H](CC(C)C)NC(=O)[C@H](CO)NC(=O)[C@@H](NC(=O)[C@@H]1CCCN1C(=O)[C@@H]1CCCN1C(C)=O)[C@@H](C)CC)[C@@H](C)O)C(C)C)[C@@H](C)O)C(=O)N[C@@H](C)C(N)=O", "note": "[[Acetyl-Pro^4]-CRF]", "values": [
      {"measurement": "Stimulation of secretion of ACTH and β-END-LI (in words)", "setting": "[1]", "result": "stimulates the secretion of ACTH and β-END-LI"},
      {"measurement": "Lowering of blood pressure (in words)", "setting": "[2]", "result": "very significant lowering of blood pressure to a greater extent than CRF"}
    ]},
    {"smiles": "CC[C@H](C)[C@H](NC(=O)[C@H](CCC(=O)O)NC(=O)[C@@H](NC(=O)[C@H](CCSC)NC(=O)[C@H](CCCCN)NC(=O)[C@H](CCCNC(=N)N)NC(=O)[C@H](CC(C)C)NC(=O)[C@H](CC(C)C)NC(=O)[C@H](CCC(=O)O)NC(=O)[C@H](CC(C)C)NC(=O)[C@H](CO)NC(=O)[C@H](CC(C)C)NC(=O)[C@H](CC(=O)O)NC(=O)[C@@H](NC(=O)[C@H](CO)NC(=O)[C@@H](NC(=O)[C@@H]1CCCN1C(=O)[C@@H]1CCCN1C(=O)CNC(=O)[C@@H]1CCC(=O)N1)[C@@H](C)CC)[C@@H](C)CC)[C@@H](C)CC)C(=O)N[C@@H](CCC(=O)O)C(=O)N[C@@H](CCCCN)C(=O)N[C@@H](CCC(N)=O)C(=O)N[C@@H](CCC(=O)O)C(=O)N[C@@H](CCCCN)C(=O)N[C@@H](CCC(=O)O)C(=O)N[C@@H](CCCCN)C(=O)N[C@@H](CCC(N)=O)C(=O)N[C@@H](CCC(N)=O)C(=O)N[C@@H](C)C(=O)N[C@@H](C)C(=O)N[C@@H](CC(N)=O)C(=O)N[C@@H](CC(N)=O)C(=O)N[C@@H](CCCNC(=N)N)C(=O)N[C@@H](CC(C)C)C(=O)N[C@@H](CC(C)C)C(=O)N[C@@H](CC(C)C)C(=O)N[C@@H](CC(=O)O)C(=O)N[C@@H](C)C(=O)N[C@@H](C)C(N)=O", "note": "[[Ala^39, Ala^40]-sauvagine]", "values": [
      {"measurement": "Stimulation of secretion of ACTH and β-END-LI (in words)", "setting": "[1]", "result": "stimulates the secretion of ACTH and β-END-LI"},
      {"measurement": "Lowering of blood pressure (in words)", "setting": "[2]", "result": "very significant lowering of blood pressure"}
    ]},
    {"smiles": "CC[C@H](C)[C@H](NC(=O)[C@H](CC(=O)O)NC(=O)[C@H](CC(C)C)NC(=O)[C@H](CC(C)C)NC(=O)[C@H](CCCCN)NC(=O)[C@H](CCCNC(=N)N)NC(=O)[C@H](CC(N)=O)NC(=O)[C@H](CO)NC(=O)[C@H](Cc1c[nH]cn1)NC(=O)[C@H](C)NC(=O)[C@H](CCC(N)=O)NC(=O)[C@H](CCC(N)=O)NC(=O)[C@H](C)NC(=O)[C@H](CC(C)C)NC(=O)[C@H](CCC(N)=O)NC(=O)[C@H](CC(=O)O)NC(=O)[C@H](C)NC(=O)[C@H](CCCCN)NC(=O)[C@@H](NC(=O)[C@H](CCSC)NC(=O)[C@H](CCC(=O)O)NC(=O)[C@H](CC(C)C)NC(=O)[C@@H](NC(=O)[C@H](CCC(=O)O)NC(=O)[C@H](CCCNC(=N)N)NC(=O)[C@H](CC(C)C)NC(=O)[C@H](CC(C)C)NC(=O)[C@H](Cc1c[nH]cn1)NC(=O)[C@H](CC(C)C)NC(=O)[C@@H](NC(=O)[C@H](CC(C)C)NC(=O)[C@H](CC(=O)O)NC(=O)[C@H](CC(C)C)NC(=O)[C@H](CO)NC(=O)[C@@H](NC(=O)[C@@H]1CCCN1C(=O)[C@@H]1CCCN1C(=O)[C@H](CCC(=O)O)NC(=O)[C@H](C)NC(=O)c1ccccc1)[C@@H](C)CC)[C@@H](C)O)C(C)C)[C@@H](C)O)C(=O)N[C@@H](C)C(N)=O", "note": "[[Benzoyl-Ala^1, des Gln^2, Leu^12]-CRF] (Bz-AEPPISLDLTLHLLREVLEMTKADQLAQQAHSNRKLLDIA-NH2)", "values": [
      {"measurement": "Stimulation of secretion of ACTH and β-END-LI (in words)", "setting": "[1]", "result": "stimulates the secretion of ACTH and β-END-LI"},
      {"measurement": "Lowering of blood pressure (in words)", "setting": "[2]", "result": "very significant lowering of blood pressure"}
    ]},
    {"smiles": "CC[C@H](C)[C@H](NC(=O)[C@@H](NC(=O)[C@H](CC(=O)O)NC(=O)[C@H](CC(C)C)NC(=O)[C@H](CC(C)C)NC(=O)[C@H](CC(C)C)NC(=O)[C@H](CCCNC(=N)N)NC(=O)[C@H](CC(N)=O)NC(=O)[C@H](CC(N)=O)NC(=O)[C@H](C)NC(=O)[C@H](C)NC(=O)[C@H](CCC(N)=O)NC(=O)[C@H](CCC(N)=O)NC(=O)[C@H](CCCCN)NC(=O)CNC(=O)[C@H](CCCCN)NC(=O)[C@H](CCC(=O)O)NC(=O)[C@H](CCC(N)=O)NC(=O)[C@H](CCCCN)NC(=O)[C@H](CCC(=O)O)NC(=O)[C@@H](NC(=O)[C@H](CCC(=O)O)NC(=O)[C@@H](NC(=O)[C@H](CCSC)NC(=O)[C@H](CCCCN)NC(=O)[C@H](CCCNC(=N)N)NC(=O)[C@H](CC(C)C)NC(=O)[C@H](CC(C)C)NC(=O)[C@H](CCC(=O)O)NC(=O)[C@H](CC(C)C)NC(=O)[C@H](CO)NC(=O)[C@H](CC(C)C)NC(=O)[C@H](CC(=O)O)NC(=O)[C@@H](NC(=O)[C@H](CO)NC(=O)[C@@H](NC(=O)[C@@H]1CCCN1C(=O)[C@@H]1CCCN1C(=O)CNC(=O)[C@@H]1CCC(=O)N1)[C@@H](C)CC)[C@@H](C)CC)[C@@H](C)CC)[C@@H](C)CC)[C@@H](C)O)C(N)=O", "note": "[[Gly^26]-sauvagine]", "values": [
      {"measurement": "Stimulation of secretion of ACTH and β-END-LI (in words)", "setting": "[1]", "result": "stimulates the secretion of ACTH and β-END-LI"},
      {"measurement": "Lowering of blood pressure (in words)", "setting": "[2]", "result": "very significant lowering of blood pressure"}
    ]},
    {"smiles": "CC[C@H](C)[C@H](NC(=O)[C@H](CC(=O)O)NC(=O)[C@H](CC(C)C)NC(=O)[C@H](CC(C)C)NC(=O)[C@H](CCCCN)NC(=O)[C@H](CCCNC(=N)N)NC(=O)[C@H](CC(N)=O)NC(=O)[C@H](CO)NC(=O)[C@H](Cc1c[nH]cn1)NC(=O)[C@H](C)NC(=O)[C@H](CCC(N)=O)NC(=O)[C@H](CCC(N)=O)NC(=O)[C@H](C)NC(=O)[C@H](CC(C)C)NC(=O)[C@H](CCC(N)=O)NC(=O)[C@H](CC(=O)O)NC(=O)[C@H](C)NC(=O)[C@H](CCCCN)NC(=O)[C@@H](NC(=O)[C@H](CCSC)NC(=O)[C@H](CCC(=O)O)NC(=O)[C@H](CC(C)C)NC(=O)[C@@H](NC(=O)[C@H](CCC(=O)O)NC(=O)[C@H](CCCNC(=N)N)NC(=O)[C@H](CC(C)C)NC(=O)[C@H](CC(C)C)NC(=O)[C@H](Cc1c[nH]cn1)NC(=O)[C@H](Cc1ccccc1)NC(=O)[C@@H](NC(=O)[C@H](CC(C)C)NC(=O)[C@H](CC(=O)O)NC(=O)[C@H](CC(C)C)NC(=O)[C@H](CO)NC(=O)[C@@H](NC(=O)[C@@H]1CCCN1C(=O)[C@@H]1CCCN1C(=O)[C@H](CCC(=O)O)NC(=O)[C@H](CCC(N)=O)NC(=O)[C@@H](N)CO)[C@@H](C)CC)[C@@H](C)O)C(C)C)[C@@H](C)O)C(N)=O", "note": "[[des Ala^41]-CRF] (H-SQEPPISLDLTFHLLREVLEMTKADQLAQQAHSNRKLLDI-NH2)", "values": [
      {"measurement": "Stimulation of secretion of ACTH and β-END-LI (in words)", "setting": "[1]", "result": "stimulates the secretion of ACTH and β-END-LI"},
      {"measurement": "Lowering of blood pressure (in words)", "setting": "[2]", "result": "very significant lowering of blood pressure"}
    ]}
  ]
}
